Measurements taken from publication PMC6370995, “Phase I study of PF‐04895162, a Kv7 channel opener, reveals unexpected hepatotoxicity in healthy subjects, but not rats or monkeys: clinical evidence of disrupted bile acid homeostasis” (Pharmacology Research & Perspectives, 2019).

Tests used:
human hepatocytes = experiment: mitochondrial respiratory reserve in human hepatocytes; type: cell-based; settings: human hepatocytes treated for 25 minutes (data not shown)
NTCP = target: T1, NTCP (Homo sapiens, UniProt Q14973); experiment: NTCP uptake of tritium labeled TCA in CHO cells; type: cell-based; settings: at 250 μmol/L
T1 construct: host or cells: CHO cells
T1 sequence (Q14973 1-349): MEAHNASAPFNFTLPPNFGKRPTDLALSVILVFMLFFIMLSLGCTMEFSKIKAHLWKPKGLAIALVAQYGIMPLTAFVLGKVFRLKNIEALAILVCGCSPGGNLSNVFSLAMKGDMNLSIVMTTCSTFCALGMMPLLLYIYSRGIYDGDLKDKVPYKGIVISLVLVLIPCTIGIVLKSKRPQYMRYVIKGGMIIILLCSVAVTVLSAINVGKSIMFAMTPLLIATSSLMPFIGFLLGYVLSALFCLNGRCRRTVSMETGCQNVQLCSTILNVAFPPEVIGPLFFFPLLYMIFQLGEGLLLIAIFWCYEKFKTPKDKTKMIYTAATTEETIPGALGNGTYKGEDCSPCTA
Source text: […]

MDR3 = target: T2, MDR3 (Homo sapiens, UniProt P21439); experiment: MDR3 inhibition/activation in human hepatocytes (d9-choline to d9-phosphatidylcholine); type: cell-based; settings: 200 μmol/L, N = 3
T2 construct: biotransformation of d 9‐choline to d 9‐phosphatidylcholine in human hepatocytes; host or cells: human hepatocytes
T2 sequence (P21439 whole entry): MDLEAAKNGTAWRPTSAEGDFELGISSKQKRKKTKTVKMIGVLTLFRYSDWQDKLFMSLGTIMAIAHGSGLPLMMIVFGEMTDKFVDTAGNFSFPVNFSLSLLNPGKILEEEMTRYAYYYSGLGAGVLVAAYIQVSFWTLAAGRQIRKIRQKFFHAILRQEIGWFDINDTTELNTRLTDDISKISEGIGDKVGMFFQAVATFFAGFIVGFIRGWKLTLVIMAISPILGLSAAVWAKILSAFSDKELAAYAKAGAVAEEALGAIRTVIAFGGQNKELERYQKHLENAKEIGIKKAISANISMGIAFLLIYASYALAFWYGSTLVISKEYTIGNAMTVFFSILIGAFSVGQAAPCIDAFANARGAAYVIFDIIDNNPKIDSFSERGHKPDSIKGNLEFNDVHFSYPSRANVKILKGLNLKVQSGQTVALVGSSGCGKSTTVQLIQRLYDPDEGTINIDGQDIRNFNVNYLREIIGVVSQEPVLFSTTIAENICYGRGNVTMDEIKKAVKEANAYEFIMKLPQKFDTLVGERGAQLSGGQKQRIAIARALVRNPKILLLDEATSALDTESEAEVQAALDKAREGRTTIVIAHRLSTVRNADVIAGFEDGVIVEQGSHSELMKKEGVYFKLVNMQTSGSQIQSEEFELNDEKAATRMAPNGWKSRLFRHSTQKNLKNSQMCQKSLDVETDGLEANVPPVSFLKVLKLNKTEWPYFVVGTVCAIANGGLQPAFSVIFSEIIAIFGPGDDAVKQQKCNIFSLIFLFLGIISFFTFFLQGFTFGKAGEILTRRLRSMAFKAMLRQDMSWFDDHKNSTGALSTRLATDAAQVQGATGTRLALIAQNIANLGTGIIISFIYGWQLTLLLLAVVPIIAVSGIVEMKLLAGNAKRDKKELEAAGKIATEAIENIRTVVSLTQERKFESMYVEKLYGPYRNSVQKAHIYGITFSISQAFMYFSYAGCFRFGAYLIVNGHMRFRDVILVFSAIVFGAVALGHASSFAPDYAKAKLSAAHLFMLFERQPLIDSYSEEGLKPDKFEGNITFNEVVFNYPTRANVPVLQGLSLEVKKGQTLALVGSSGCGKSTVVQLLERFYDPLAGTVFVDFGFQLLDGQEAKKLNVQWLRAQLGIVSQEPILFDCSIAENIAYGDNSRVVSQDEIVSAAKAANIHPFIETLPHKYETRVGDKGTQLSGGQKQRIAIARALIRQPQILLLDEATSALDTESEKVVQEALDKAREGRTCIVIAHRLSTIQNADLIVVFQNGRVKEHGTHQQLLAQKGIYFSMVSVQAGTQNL
Source text: […]

healthy subjects = experiment: Biomarkers of liver injury in residual plasma PK samples (miRNA122, total and fractionated bile acids); type: in vivo, human; settings: 300 mg BID
Protocol: Methodology for the following in vitro assays and biomarker determinations were as follows: THLE/HepG2 72 hour cytotoxicity assays based on ATP depletion;14 mitochondrial functional assessment based on state 3/4 respiration determination in the presence of glutamate/malate15, 16 or fatty acid oxidation inhibition using palmitate;17 BSEP inhibition in vesicles using tritium labeled taurocholic acid (TCA);18 human hepatocyte imaging assay determination of cell loss, mitochondrial membrane permeability, glutathione content, and production of reactive oxygen species;19 miRNA‐122 determination using QuantiGene 2.0 miRNA;20 human multidrug resistance protein 3 inhibition/activation (MDR3, encoded by ABCB4) was determined at Biotranex based on biotransformation of d 9‐choline to d 9‐phosphatidylcholine in human hepatocytes;21 and fractionated bile acid determinations were conducted by LC‐MS/MS methodology.22 These various assays have been published in detail and used by us in previous investigative works.2, 3, 21 Examination of human sodium/taurocholate cotransporting polypeptide (NTCP, encoded by SLC10A1) was determined based on uptake of tritium labeled TCA in CHO cells and human multidrug resistance‐associated protein 3/4 (MRP3/4, encoded by ABCC3/4) transporter inhibition in vesicles obtained from HEK293 cells using tritium labeled estradiol 17 β‐D‐glucuronide and dehydroepiandrosterone sulfate as substrates, respectively.
Three of eight treated healthy subjects consented for additional analyses of residual plasma PK samples for biomarkers of liver injury (e.g., miRNA122, total, and fractionated bile acids).

[1] = ADME of single oral dose of 14C-labeled parent in male rats; type: in vivo, rat; settings: single oral dose (target 15 mg/kg) 14C-labeled
Source text: A summary of liver effects along with a detailed synopsis of each nonclinical study that was used to support the Investigational New Drug Application filing along with longer term studies can be found in the supplemental information associated with this article. In brief, this compound advanced into clinical studies without any histopathological evidence of liver injury or reproducible transaminase elevations in rats and monkeys. The addition of total bile acid analysis in nonclinical safety assessment studies, although germane to this investigation retrospectively, is not routine.26 Absorption, distribution, metabolism, and excretion of parent and metabolites were examined in albino and pigmented male rats after administration of a single oral dose (target 15 mg/kg) of ^14C‐labeled parent. Elimination of radioactivity occurred mostly within the first 24 hours after dosing with approximately 71 and 22% of the administered dose excreted in feces and urine, respectively. An equivalent human study was not performed.

cynomolgus monkeys [2] = experiment: Escalating Dose Range-Finding and Maximum Tolerated Dose Study in Cynomolgus Monkeys; type: in vivo, cynomolgus monkey
[3] = 7-Day Oral Toxicity Study in Monkeys; type: in vivo, cynomolgus monkey; settings: both sexes, cynomolgus monkey, plasma, oral, Day 7, males and females, read-out: total Cmax
Protocol: (§1) Male and female cynomolgus monkeys were administered PF-04895162 twice daily for 7 days at approximately 12 hours apart, with the dose split equally between the 2 daily doses. The highest administered does was 200 mg/kg/day.

cynomolgus monkeys [4] = experiment: 7-Day Oral Toxicity Study in Monkeys; type: in vivo, cynomolgus monkey; settings: for liver weight: males and females
Protocol: as §1

[5] = 9-Month Oral Toxicity Study in Cynomolgus Monkeys; type: in vivo, cynomolgus monkey; settings: cynomolgus monkey, plasma, oral, 100 mg/kg/day
Protocol: (§2) A 28-day nasogastric toxicity study was conducted in cynomolgus monkeys at up to 100 mg/kg/day and a 9-month oral toxicity study with a 3-month interim sacrifice was conducted in cynomolgus monkeys at up to 100 mg/kg/day.

cynomolgus monkeys [6] = experiment: 9-Month Oral Toxicity Study in Cynomolgus Monkeys; type: in vivo, cynomolgus monkey
Protocol: as §2

O=C(Cc1ccc(F)cc1)Nn1c(C2CC2)nc2cc(F)ccc2c1=O [PF‐04895162, N‐(2‐cyclopropyl‐7‐fluoro‐4‐oxoquinazolin‐3(4H)‐yl)‐2‐(4‐fluorophenyl)ethanamide]
Concentrations at which mitochondrial respiratory reserve was compromised (human hepatocytes): > 11 µmol/L
inhibition at 250 µM (NTCP): 30%
effect on MDR3 activity (MDR3): stimulation
plasma miRNA122, Subject 8 (healthy subjects; Period 3): elevated (>ULN) by Day 5
fasting total bile acid levels of treated subjects (healthy subjects; Period 3, normal range <10 μmol/L): within the normal range
hydrophobicity index of serum bile acids, Subject 6 (healthy subjects; Day 7, AUC 0-12 h): 0.47
hydrophobicity index of serum bile acids, Subject 8 (healthy subjects; Day 7, AUC 0-12 h): 0.40
hydrophobicity index of serum bile acids, Subject 10 (healthy subjects; Day 7, AUC 0-12 h): 0.45
administered dose excreted in feces [1]: approximately 71%
administered dose excreted in urine [1]: ~22%
gross findings at necropsy, organ weights, liver histopathology, Dosing Phase 1 (cynomolgus monkeys [2]; 25, 50, 100 and 200 mg/kg): no other apparent effects of treatment
clinical signs, Dosing Phase 2 (cynomolgus monkeys [2]; morning following dosing at 200 mg/kg/day, all 4 treated monkeys): hyperactivity, ataxia, tremors, and dilated pupils
clinical observation, Dosing Phase 1 (cynomolgus monkeys [2]; single escalating NG doses, most prevalently at 100 and 200 mg/kg): Post-dosing vomitus
Cmax ([3]; 150 mg/kg/day): > 27000 ng/mL
Cmax ([3]; 200 mg/kg/day): > 24000 ng/mL
Treatment-related clinical findings (cynomolgus monkeys [4]; 150 and/or 200 mg/kg/day): decreased activity, ataxia, inappetence, stereotypy (hyper-reactivity, rigidity, jumping), tremors, loss of limb function, rapid eye movement, and eyelid partially/completely closed
thymus gland weight (cynomolgus monkeys [4]; females, 150 and 200 mg/kg/day): Decreased thymus gland weight
liver weight (cynomolgus monkeys [4]; 150 and 200 mg/kg/day): Increased liver weight
liver weight (cynomolgus monkeys [4]; 150 and 200 mg/kg/day, listed as ICA-105665): increased liver weight
brain weight (cynomolgus monkeys [4]; males, 150 and 200 mg/kg/day): dose-dependent increases in brain weight
clinical chemistry (liver effects) (cynomolgus monkeys [4]; twice daily for 7 days, up to 200 mg/kg/day): no clinical chemistry changes suggestive of liver effects
Cmax ([5]; both sexes, after 9 months, males and females, read-out: total Cmax): ~29000 ng/mL
Cmax ([5]; studies >1 month in duration, read-out: total Cmax concentrations in the monkey): 81.6 µM
hematology, coagulation, clinical chemistry, macroscopic and microscopic pathology (cynomolgus monkeys [6]; 9 months, up to 100 mg/kg/day): No effect of treatment
body weights, body temperatures, hematology, coagulation, clinical chemistry, ophthalmoscopic, electrocardiographic examinations (cynomolgus monkeys [6]; 10, 30 and 100 mg/kg/day): No effect of treatment
liver weights (cynomolgus monkeys [6]; males at 30 and 100 mg/kg/day, females at 100 mg/kg/day, after 9 months): increases in liver weights
mortality (cynomolgus monkeys [6]; one female at 100 mg/kg/day): found dead on Day 45
clinical findings (cynomolgus monkeys [6]; sporadically in a few males and females at 100 mg/kg/day): Gross tremors and distended abdomens
